Experimental data published in publication PMC6327985, “Soyasaponins from Zolfino bean as aldose reductase differential inhibitors” (Journal of Enzyme Inhibition and Medicinal Chemistry, 2018).
Where two headings read alike, the source gives them in different places.

Molecular target: T1, human recombinant AKR1B1 (hAKR1B1) (Homo sapiens, UniProt P15121)
T1 construct: made in house
Test: Assay of aldose reductase: hAKR1B1-catalysed NADPH-dependent reduction of L-idose or HNE, decrease in absorbance at 340 nm
Type: biochemical
Settings: for IC50: 8 mU hAKR1B1, authentic standard; for K’i (ternary enzyme-substrate-inhibitor complex dissociation constant) / Ki: Hanes-Woolf analysis, mean ± SEM; for Ki: read-out: Ki (binary enzyme-inhibitor complex dissociation constant)
Description: The AKR1B1 activity was determined at 37 °C as previously described, monitoring the decrease in absorbance at 340 nm linked to NADPH oxidation (ε340=6.22 mM^−1 cm^−1) through a Biochrom Libra S60 spectrophotometer. In a 0.25 M sodium phosphate buffer pH 6.8, the standard assay mixture contained 0.18 mM NADPH, 0.4 M ammonium sulphate, 0.5 mM EDTA and 4.7 mM GAL. One unit of enzyme activity is the amount that catalyses the conversion of 1 µmol of substrate/min in the above assay conditions. These assay conditions were also adopted to assess the effectiveness of inhibitors when L-idose or HNE were used, at the indicated concentrations, as substrates instead of GAL. Differential inhibition (DI) refers to the difference between the percentage inhibition observed using L-idose and HNE as substrates in the assay conditions indicated.
The human recombinant AKR1B1 (hAKR1B1) was expressed and purified to electrophoretic homogeneity as previously described. The purified enzyme (specific activity 5.3 U/mg) was stored at −80 °C in a 10 mM sodium phosphate buffer pH 7.0 containing 2 mM DTT and 30% (w/v) glycerol. Before use, the enzyme was extensively dialysed against a 10 mM sodium phosphate buffer pH 7.0.
The protein concentration was determined by the Coomassie blue staining method, using BSA as a standard protein. Statistical analysis was performed using the two-way ANOVA test carried out with Graphpad 6.0 software. IC50 determination was performed using standard statistical software (GraphPad Instat version 6.0, San Diego, CA). Results are reported as the mean of the values and the 95% confidence interval from at least three independent measurements.

[1] = substrate 0.04 mM HNE, read-out: IC50 for HNE reduction
[2] = substrate 0.8 mM L-idose, read-out: IC50 for L-idose reduction

Row | IC50 [1] [µM] | IC50 [2] [µM] | K’i (ternary enzyme-substrate-inhibitor complex dissociation constant) (substrate HNE) [µM] | K’i (ternary enzyme-substrate-inhibitor complex dissociation constant) (substrate L-idose) [µM] | Ki (substrate L-idose) [µM] | inhibition model (with respect to HNE) | inhibition model (with respect to L-idose) | Ki (substrate HNE) [µM] | Structure (SMILES)
1 | 360 | 170 | 248 ± 19 | 191 ± 11 | 176 ± 35 | uncompetitive | purely non-competitive inhibitor |  | C[C@@H]1O[C@@H](O[C@H]2[C@H](O[C@H]3[C@H](O[C@H]4CC[C@@]5(C)[C@@H](CC[C@]6(C)[C@@H]5CC=C5[C@@H]7CC(C)(C)C[C@@H](O)[C@]7(C)CC[C@]56C)[C@@]4(C)CO)O[C@H](C(=O)O)[C@@H](O)[C@@H]3O)O[C@H](CO)[C@H](O)[C@@H]2O)[C@H](O)[C@H](O)[C@H]1O [SSBb, soyasaponin Bb (I)]
2 | 47 | 40 | 23 ± 4 | 24 ± 2 | 66 ± 17 | mixed inhibitor | mixed inhibitor | 65 ± 12 | CC1(C)C[C@@H](O)[C@]2(C)CC[C@]3(C)C(=CC[C@@H]4[C@@]5(C)CC[C@H](O[C@@H]6O[C@H](C(=O)O)[C@@H](O)[C@H](O)[C@H]6O[C@@H]6O[C@H](CO)[C@H](O)[C@H](O)[C@H]6O[C@@H]6O[C@H](CO)[C@@H](O)[C@H](O)[C@H]6O)[C@](C)(CO)[C@@H]5CC[C@]43C)[C@@H]2C1 [SSBa, soyasaponin Ba (V)]
